Test results taken from US20070244184A1, “GLYCOSIDASE INHIBITORS AND METHODS OF SYNTHESIZING SAME” (SIMON FRASER UNIVERSITY, priority 2006, published 2007).
Where a name gives a salt, the structure may show the parent alone. Read-outs that look alike come from different tables or passages of the source. One block for each compound: values may come before it.

Legend:
[1] = target: T1, recombinant human maltase glucoamylase (MGA) (Homo sapiens, UniProt O43451); experiment: MGA inhibition, p-nitrophenyl α-D-glucopyranoside substrate (IC50); type: biochemical; settings: p-nitrophenyl α-D-glucopyranoside as substrate
Method: The assays were carried out in 96-well microtiter plates containing 100 mM MES buffer pH 6.5, inhibitor and pNP-glucose as substrate, with a final volume of 50 μL. Reactions were incubated at 37° C. for 35 min and terminated by addition of 50 μL of 0.5 M sodium carbonate. […] All reactions were performed in triplicate and absorbance measurements were averaged to give a final result.

[2] = target: T1, recombinant human maltase glucoamylase (MGA); experiment: Recombinant MGA inhibition, maltose substrate, glucose oxidase assay (Ki); type: biochemical; settings: for Ki: maltose substrate, read-out: Ki against recombinant human MGA
Method: (§1) Enzyme Activity Assays: Measurement of dGMII inhibition was carried out as outlined in the literature.^12 Analysis of recombinant MGA inhibition and determination of the kinetic constants for competitive inhibition have been described.^60 Briefly, analysis of MGA inhibition was performed using maltose as the substrate, and measuring the release of glucose. Reactions were carried out in 100 mM MES buffer pH 6.5 at 37° C. The reaction was stopped by boiling for 3 min. 20 μL aliquots were taken and added to 100 μL of glucose oxidase assay reagent (Sigma) in a 96-well plate. Reactions were developed for 1 hour and absorbance was measured at 450 nm to determine the amount of glucose produced by MGA activity in the reaction. All reactions were performed in triplicate and absorbance measurements were averaged to give a final result.
Enzyme Kinetics: Kinetic parameters of recombinant MGA were determined using the glucose oxidase assay to follow the production of glucose upon addition of enzyme (15 nM) at increasing maltose concentrations (from 2.5 mM to 30 mM) with a reaction time of 15 minutes. The Ki value was determined by measuring the rate of maltose hydrolysis by MGA at varying inhibitor concentrations. Data were plotted in Lineweaver-Burk plots (1/rate vs. 1/[substrate]) and the Ki value was determined by the equation Ki=Km[I]/(Vmax)s−Km, where “s” is the slope of the line. The Ki reported was an average of the Ki values obtained from each of the different inhibitor concentrations.
Enzyme Activity Assay. Analysis of MGA inhibition was performed using maltose as the substrate, and measuring the release of glucose. Reactions were carried out in 100 mM MES buffer pH 6.5 at 37° C. for 15 min. The reaction was stopped by boiling for 3 min. 20 μL aliquots were taken and added to 100 μL of glucose oxidase assay reagent (Sigma) in a 96-well plate. Reactions were allowed to proceed for 1 h and absorbance was measured at 450 nm to determine the amount of glucose produced by MGA activity in the reaction. One unit of activity is defined as the hydrolysis of one […] of maltose per minute. All reactions were performed in triplicate and absorbance measurements were averaged to give a final result.
Enzyme Kinetics. Kinetic parameters of recombinant MGA were determined using the glucose oxidase assay to follow the production of glucose upon addition of enzyme (15 nM) at increasing maltose concentrations (from 1 mM-3.5 mM) with a reaction time of 15 min. The program GraFit 4.0.14 was used to fit the data to the Michaelis-Menten equation and estimate the kinetic parameters, Km and Vmax, of the enzyme. Ki values for each inhibitor were determined by measuring the rate of maltose hydrolysis by MGA at varying inhibitor concentrations. Data were plotted in Lineweaver-Burk plots (1/rate vs. 1/[substrate]) and Ki values were determined by the equation Ki=Km[I]/(Vmax)m−Km, where “m” is the slope of the line. The Ki reported for each inhibitor was estimated by averaging the Ki values obtained from each of the different inhibitor concentrations.

[3] = target: T1, recombinant human maltase glucoamylase (MGA); settings: cited from earlier work
[4] = target: T2, Drosophila melanogaster Golgi α-mannosidase II (dGMII) (Drosophila melanogaster, UniProt Q24451); settings: read-out: IC50 against dGMII, cited from earlier work
T2 sequence (Q24451 1-1108): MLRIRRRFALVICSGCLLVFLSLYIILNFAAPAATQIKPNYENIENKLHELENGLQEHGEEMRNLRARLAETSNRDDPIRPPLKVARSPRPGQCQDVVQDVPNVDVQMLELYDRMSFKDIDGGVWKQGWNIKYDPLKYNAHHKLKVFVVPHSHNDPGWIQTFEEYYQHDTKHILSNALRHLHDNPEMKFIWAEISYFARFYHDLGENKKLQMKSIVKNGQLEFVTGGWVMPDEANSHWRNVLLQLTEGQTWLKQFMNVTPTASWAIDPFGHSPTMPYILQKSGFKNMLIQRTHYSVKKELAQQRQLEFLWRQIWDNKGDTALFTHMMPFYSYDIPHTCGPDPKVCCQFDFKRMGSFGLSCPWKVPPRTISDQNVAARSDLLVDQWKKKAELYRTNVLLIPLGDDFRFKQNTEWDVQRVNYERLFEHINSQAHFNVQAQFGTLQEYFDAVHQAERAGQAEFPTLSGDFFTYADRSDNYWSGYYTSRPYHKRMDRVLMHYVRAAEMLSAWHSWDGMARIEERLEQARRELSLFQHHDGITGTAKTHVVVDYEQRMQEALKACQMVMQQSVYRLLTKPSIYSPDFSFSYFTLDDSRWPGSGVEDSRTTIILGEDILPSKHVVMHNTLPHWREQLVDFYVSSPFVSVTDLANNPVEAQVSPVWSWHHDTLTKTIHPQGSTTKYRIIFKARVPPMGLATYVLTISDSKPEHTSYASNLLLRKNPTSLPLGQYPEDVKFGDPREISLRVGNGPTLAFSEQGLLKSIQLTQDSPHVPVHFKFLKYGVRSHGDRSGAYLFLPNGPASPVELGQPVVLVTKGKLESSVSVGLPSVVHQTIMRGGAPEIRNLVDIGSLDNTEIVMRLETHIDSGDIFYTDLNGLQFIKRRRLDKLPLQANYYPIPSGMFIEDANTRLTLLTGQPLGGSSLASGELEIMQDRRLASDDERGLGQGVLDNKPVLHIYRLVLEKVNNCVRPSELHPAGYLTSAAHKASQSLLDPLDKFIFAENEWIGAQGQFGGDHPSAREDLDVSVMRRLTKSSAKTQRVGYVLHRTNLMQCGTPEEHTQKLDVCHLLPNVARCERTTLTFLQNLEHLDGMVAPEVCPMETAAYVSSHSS

[5] = target: T2, Drosophila melanogaster Golgi α-mannosidase II (dGMII); experiment: dGMII inhibition; type: biochemical
Method: as §1

T1 sequence (O43451 87-954 limits assumed): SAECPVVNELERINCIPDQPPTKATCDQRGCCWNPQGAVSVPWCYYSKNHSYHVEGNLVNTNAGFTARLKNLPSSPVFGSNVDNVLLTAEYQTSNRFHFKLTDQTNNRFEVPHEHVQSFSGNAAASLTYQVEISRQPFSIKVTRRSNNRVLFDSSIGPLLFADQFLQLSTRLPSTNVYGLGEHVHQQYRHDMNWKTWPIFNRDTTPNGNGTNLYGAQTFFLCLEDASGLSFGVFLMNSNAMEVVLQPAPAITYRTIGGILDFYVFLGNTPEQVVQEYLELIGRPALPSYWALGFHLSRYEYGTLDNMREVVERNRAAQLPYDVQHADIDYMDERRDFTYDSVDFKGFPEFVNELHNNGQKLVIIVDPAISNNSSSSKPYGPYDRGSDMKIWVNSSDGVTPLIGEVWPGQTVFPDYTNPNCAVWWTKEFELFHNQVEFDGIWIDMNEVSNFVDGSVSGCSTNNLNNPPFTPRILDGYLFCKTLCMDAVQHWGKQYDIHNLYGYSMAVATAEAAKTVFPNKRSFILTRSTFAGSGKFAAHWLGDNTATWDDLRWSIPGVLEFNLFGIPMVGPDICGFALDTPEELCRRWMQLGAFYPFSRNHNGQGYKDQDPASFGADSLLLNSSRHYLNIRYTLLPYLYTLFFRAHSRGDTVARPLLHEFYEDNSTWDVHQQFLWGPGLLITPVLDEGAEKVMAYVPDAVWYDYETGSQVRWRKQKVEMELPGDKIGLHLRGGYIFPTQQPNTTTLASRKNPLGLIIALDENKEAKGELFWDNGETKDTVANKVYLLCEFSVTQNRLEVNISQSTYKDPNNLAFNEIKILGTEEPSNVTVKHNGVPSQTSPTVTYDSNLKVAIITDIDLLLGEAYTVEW

IC50 [1]: 50 µM
SMILES: CCCCCC[S+]1CC(O)C(O)C1CO [Compound 46, 1,4-Dideoxy-1,4-[(1-hexyl)-(R)-episulfoniumylidene]-D-arabinitol chloride]

SMILES: O=S(=O)([O-])OC(CO)C(O)C(O)C[Se+]1CC(O)C(O)C1CO [Compound 79, 1,4-Dideoxy-1,4[[2S,3S,4S]-2,3,5-trihydroxy-4-(sulfooxy)-pentyl]-epi-selenoniumylidene]-D-arabinitol Inner salt]
Ki [2]: 53 ± 5 µM

SMILES: O=S(=O)([O-])OC(CO)C(O)C[Se+]1CC(O)C(O)C1CO (stereo not shown) [blintol]
Ki ([3]; read-out: Ki against MGA, reference compounds, unit inferred): 0.49 ± 0.05 µM
IC50 [4]: ~7500 µM

SMILES: O=S(=O)([O-])OC(CO)C(O)C[S+]1CC(O)C(O)C1CO (stereo not shown) [salacinol]
IC50 [4]: ~7500 µM

SMILES: O=S(=O)([O-])OC(CO)C(O)C(O)C[Se+]1CC(O)C(O)C1CO [Compound 81, 1,4-Dideoxy-1,4[[2R,3R,4R]-2,3,5-trihydroxy-4-(sulfooxy)-pentyl]-epi-selenoniumylidene]-D-arabinitol Inner salt]
inhibitory activity against recombinant human MGA (in words) [2]: not active

inhibitory activity against recombinant human MGA (in words) [2]: not active
SMILES: O=S(=O)([O-])O[C@H](CO)[C@H](O)[C@@H](O)C[S+]1C[C@@H](O)[C@H](O)[C@H]1CO (stereo partly drawn) [Compound 80, 1,4-Dideoxy-1,4[[2R,3R,4R]-2,3,5-trihydroxy-4-(sulfooxy)-pentyl]-epi-sulfoniumylidene]-D-arabinitol Inner salt]

SMILES: O=C([O-])[C@H](O)[C@H](O)[C@H](O)C[S@@+]1C[C@H](O)[C@@H](O)[C@@H]1CO [Compound 4, 1,4-Dideoxy-1,4-[[(2′S,3′S,4′R)-2′,3′,4′-trihydroxy-4′-carboxybutyl]-episulfoniumyl-idene]-L-arabinitol inner salt]
inhibitory activity against recombinant human MGA (in words) [2]: Only compound 5, with the D-arabinitol configuration in the heterocyclic ring displayed by salacinol 1, was found to be active

IC50 [1]: 25 µM
SMILES: CCCCCCCCCCCCCC[S+]1CC(O)C(O)C1CO [Compound 44, 1,4-Dideoxy-1,4-[(1-tetradecyl)-(R)-episulfoniumylidene]-D-arabinitol triflate]

SMILES: O=C(O)[C@@H](O)[C@@H](O)[C@H](O)[C@@H](O)CN1C[C@H](O)[C@@H](O)[C@@H]1CO [Compound 20, 6′-((1,4-Dideoxy-1,4-imino-L-arabinitol)-4-N-ammonium)-6′-deoxy-L-gulonate]
activity against dGMII (in words) [5]: not active on either enzyme
inhibitory activity against recombinant human MGA (in words) [2]: not active on either enzyme

melting point: 69 to 71 °C
SMILES: CCCCCCCCCCCCCC[S+]1CC(O)C(O)C1CO (as salt: triflate) [Compound 44, 1,4-Dideoxy-1,4-[(1-tetradecyl)-(R)-episulfoniumylidene]-D-arabinitol triflate]

IC50 [1]: 50 µM
SMILES: CC(C)CC[S+]1CC(O)C(O)C1CO [Compound 50, 1,4-Dideoxy-1,4-[[1-(3-methyl)-butyl]-(R)-episulfoniumylidene]-D-arabinitol chloride]

SMILES: O[C@H]1[C@H]2[C@H](O)CCCN2C[C@H]1O [swainsonine]
IC50 ([4]; swainsonine, literature value): 0.02 to 0.04 µM

Ki [2]: 10 µM
SMILES: O=C([O-])C(O)C(O)C(O)C[S+]1CC(O)C(O)C1CO [Compound 5, 1,4-Dideoxy-1,4-[[(2′S,3′S,4′R)-2′,3′,4′-trihydroxy-4′-carboxybutyl]-episulfoniumyl-idene]-D-arabinitol inner salt]

melting point: 86 to 88 °C
SMILES: CCCCCCCCCCCCCC[S+]1CC(O)C(O)C1CO (as salt: chloride) [Compound 48, 1,4-Dideoxy-1,4-[(1-tetradecyl)-(R)-episulfoniumylidene]-D-arabinitol chloride]

IC50 [1]: 15 µM
SMILES: CCCCCCCCCCCCCCCCCC[S+]1CC(O)C(O)C1CO [Compound 49, 1,4-Dideoxy-1,4-[(1-octadecyl)-(R)-episulfoniumylidene]-D-arabiiiitol chloride]

SMILES: O=C(O)[C@@H](O)[C@@H](O)[C@H](O)[C@@H](O)CN1C[C@@H](O)[C@H](O)[C@H]1CO [Compound 21, 6′-((1,4-Dideoxy-1,4-imino-D-arabinitol)-4-N-ammonium)-6′-deoxy-L-gulonic acid hydro-chloride]
improvement of dGMII inhibition over salacinol, kotalanol and other analogues ([5]; 0.3 mM vs approximately 7.5 mM): 25 fold
IC50 ([5]; read-out: IC50 against dGMII): 300 µM
Ki [2]: 21 µM

SMILES: O=S(=O)([O-])O[C@@H]([C@H](O)C[S@+]1C[C@@H](O)[C@H](O)[C@H]1CO)[C@@H](O)CO [Compound 89]
inhibitory activity against MGA (in words) [3]: inactive

Ki [2]: 20 ± 4 µM
SMILES: O=S(=O)([O-])OC(CO)C(O)C(O)C[S+]1CC(O)C(O)C1CO (stereo not shown) [Compound 78]

IC50 [1]: 30 µM
SMILES: CCCCCCCCCCCCCC[S+]1CC(O)C(O)C1CO [Compound 48, 1,4-Dideoxy-1,4-[(1-tetradecyl)-(R)-episulfoniumylidene]-D-arabinitol chloride]

melting point: 95 to 97 °C
SMILES: CCCCCCCCCCCCCCCCCC[S+]1CC(O)C(O)C1CO (as salt: chloride) [Compound 49, 1,4-Dideoxy-1,4-[(1-octadecyl)-(R)-episulfoniumylidene]-D-arabiiiitol chloride]

SMILES: O=S(=O)([O-])OC(C(O)C[S+]1CC(O)C(O)C1CO)C(O)C(O)C(O)CO (stereo not shown) [kotalanol]
IC50 [4]: ~7500 µM
